Source: patent US20240158446A1, “CYCLIC COMPOUND HAVING SELECTIVE INHIBITORY ACTION ON KRAS OVER HRAS AND NRAS” (CHUGAI SEIYAKU KABUSHIKI KAISHA, priority 2021, published 2024)
Where two headings read alike, the source gives them in different places. Where a SMILES comes first, the peptide text is derived from it. Bridges are numbered along the chain shown (N, C = ends). [ ]: non-standard residue; d: D form. The star is where a group is joined. hPhe(3,5-F2-4-CF3) = N[C@@H](CCc1cc(F)c(C(F)(F)F)c(F)c1)C(=O)O; hPhe(3-Cl-4-CF3) = N[C@@H](CCc1ccc(C(F)(F)F)c(Cl)c1)C(=O)O; NPrPhe(4-CF3) = CCCN[C@@H](Cc1ccc(C(F)(F)F)cc1)C(=O)O; 3Oxa8azabicyclo(3.2.1)octane = C1CC2COCC1N2*; NMeGly(cPent) = CN[C@H](C(=O)O)C1CCCC1; NMeD = CN[C@@H](CC(=O)O)C(=O)O; NMeL = CN[C@@H](CC(C)C)C(=O)O; αMeL = CC(C)C[C@](C)(N)C(=O)O; Morpholide = C1CN(*)CCO1; Ac5c = NC1(C(=O)O)CCCC1; Sar = CNCC(=O)O

Legend:
[1] = target: GDP-bound HRAS wild-type protein (Homo sapiens, UniProt P01112); experiment: Binding to HRAS by surface plasmon resonance (SPR), Single Cycle Kinetics; settings: SPR
[2] = target: GDP-bound NRAS wild-type protein (Homo sapiens, UniProt P01111); experiment: Binding to NRAS by surface plasmon resonance (SPR), Single Cycle Kinetics; settings: SPR
[3] = test system: human lung cancer strain NCI-H441;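 note: cell proliferation inhibition after four days measured by CellTiter-Glo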
[4] = target: GDP-bound KRAS wild-type protein (Homo sapiens, UniProt P01116); experiment: Binding to KRAS by surface plasmon resonance (SPR), Single Cycle Kinetics
[5] = GDP-bound HRAS wild-type protein vs GDP-bound KRAS wild-type protein, KD ratio class
[6] = GDP-bound NRAS wild-type protein vs GDP-bound KRAS wild-type protein, KD ratio class
[7] = SPR, Single Cycle Kinetics, 1:1 binding model, GDP-bound KRAS wild-type protein, read-out: KRAS KD
[8] = GDP-bound HRAS wild-type protein vs GDP-bound KRAS wild-type protein
[9] = GDP-bound NRAS wild-type protein vs GDP-bound KRAS wild-type protein
[10] = SPR Single Cycle Kinetics, GDP-bound KRAS wild-type protein, 1:1 binding model, read-out: KRAS KD
[11] = SPR, Single Cycle Kinetics, GDP-bound KRAS wild-type protein, read-out: KRAS KD

Chain of GDP-bound HRAS wild-type protein (P01112 whole entry): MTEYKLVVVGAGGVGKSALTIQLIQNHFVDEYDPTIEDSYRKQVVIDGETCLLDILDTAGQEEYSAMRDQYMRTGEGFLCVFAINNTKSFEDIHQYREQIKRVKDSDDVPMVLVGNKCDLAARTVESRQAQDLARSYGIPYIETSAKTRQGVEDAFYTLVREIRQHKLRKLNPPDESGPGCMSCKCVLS
Chain of GDP-bound KRAS wild-type protein (P01116 whole entry): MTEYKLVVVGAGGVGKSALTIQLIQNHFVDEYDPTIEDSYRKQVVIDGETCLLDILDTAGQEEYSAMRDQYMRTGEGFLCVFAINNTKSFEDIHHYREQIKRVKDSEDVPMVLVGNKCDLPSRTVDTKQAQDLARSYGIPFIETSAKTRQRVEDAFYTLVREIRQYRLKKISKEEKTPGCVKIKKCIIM
Chain of GDP-bound NRAS wild-type protein (P01111 whole entry): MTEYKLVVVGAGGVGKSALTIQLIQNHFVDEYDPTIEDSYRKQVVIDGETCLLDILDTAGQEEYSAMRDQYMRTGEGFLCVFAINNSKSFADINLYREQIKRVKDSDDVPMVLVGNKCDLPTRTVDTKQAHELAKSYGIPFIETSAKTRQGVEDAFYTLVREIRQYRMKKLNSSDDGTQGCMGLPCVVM

IC50 [3] [nM]	Kd [4, 11] [nM]	SMILES	HRAS/KRAS (ratio of KD value for HRAS to KD value for KRAS) [1, 8]	NRAS/KRAS (ratio of KD value for NRAS to KD value for KRAS) [2, 9]	further results
30.6	–	CCO[C@@H]1C[C@H]2C(=O)NC3(CCC3)C(=O)N(C)[C@@H](C3CCCC3)C(=O)N(C)[C@H](C(=O)N(C)C)CC(=O)N(C)[C@@H](CSC)C(=O)N[C@@H]([C@@H](C)CC)C(=O)N(C)CC(=O)N(C)[C@H]3C/C=C\CCN(C3=O)[C@@H](CC3CCC(F)(F)CC3)C(=O)N(C)CC(=O)N[C@@H](CCc3cc(F)c(C(F)(F)F)c(F)c3)C(=O)N2C1 [PP1449, (2S,8S,12R,14S,20S,23S,27R,30S,36S,38Z)-20-cyclopentyl-2-[(4,4-difluorocyclohexyl)methyl]-8-[2-[3,5-difluoro-4-(trifluoromethyl)phenyl]ethyl]-12-ethoxy-N,N,4,19,22,26,32,35-octamethyl-30-[(1 S)-1-methylpropyl]-27-(methylsulfanylmethyl)-3,6,9,15,18,21,25,28,31,34,42-undecaoxo-spiro[1,4,7,10,16,19,22,26,29,32,35-undecazatricyclo[34.5.1.0^10,14]dotetracont-38-ene-17,1′-cyclobutane]-23-carboxamide]	–	–	HRAS/KRAS (ratio of KD value for HRAS to KD value for KRAS) [1, 5]: A (a compound having 10 or more and less than 20 is denoted as A); NRAS/KRAS (ratio of KD value for NRAS to KD value for KRAS) [2, 6]: A (a compound having 10 or more and less than 20 is denoted as A); Kd [4, 7]: 0.098 nM
3.3	0.02	CCCOC[C@H]1C(=O)N[C@@H]([C@@H](C)CC)C(=O)N(C)CC(=O)N(C)[C@H]2C/C=C\CCN(C2=O)[C@@H](Cc2ccc(C)cc2)C(=O)N(C)CC(=O)N[C@@H](CCc2ccc(C(F)(F)F)c(OC)c2)C(=O)N2C[C@@H](C)C[C@H]2C(=O)N(C)C2(CCC2)C(=O)N(C)[C@@H](C2CCCC2)C(=O)N(C)[C@H](C(=O)N(C)C)CC(=O)N1C [PP2365]	B (a compound having 3 or more and less than 10 is denoted as B)	A (a compound having 10 or more and less than 20 is denoted as A)	–
86.8	2.4	C#CCN1CC(=O)N(C)[C@H]2C/C=C\CCN(C2=O)[C@@H](Cc2ccc(C)cc2)C(=O)N(C)CC(=O)N[C@@H](CCc2ccc(C(F)(F)F)c(OC)c2)C(=O)N2C[C@H](OCC)C[C@H]2C(=O)NC2(CC(C)(C)C2)C(=O)N(C)[C@@H](C2CCCC2)C(=O)N(C)[C@H](C(=O)N(C)C)CC(=O)N(C)[C@@H](CCC)C(=O)N[C@@H](CC(C)C)C1=O [PP2514]	B (a compound having 3 or more and less than 10 is denoted as B)	A (a compound having 10 or more and less than 20 is denoted as A)	–
70.8	0.18	CCO[C@@H]1C[C@H]2C(=O)NC3(CCC3)C(=O)N(C)[C@@H](C3CCCC3)C(=O)N(C)[C@H](C(=O)N(C)C)CC(=O)N(C)[C@@H](Cc3ccc(C#N)cc3)C(=O)N[C@@H]([C@@H](C)CC)C(=O)N(C)CC(=O)N(C)[C@H]3CCCCCN(C3=O)[C@@H](Cc3ccc(C(F)(F)F)cc3)C(=O)N(C)CC(=O)N[C@@H](CCc3cc(F)c(C(F)(F)F)c(F)c3)C(=O)N2C1 [PP1173]	B (a compound having 3 or more and less than 10 is denoted as B)	B (a compound having 3 or more and less than 10 is denoted as B)	–
125	1.7	CCC(CC)[C@H]1C(=O)N(C)[C@H](C(=O)N(C)C)CC(=O)N(C)[C@@H](CC2CC2)C(=O)N[C@@H]([C@@H](C)CC)C(=O)N(C)CC(=O)N(C)[C@H]2C/C=C\CCN(C2=O)[C@@H](CC2CCC(F)(F)CC2)C(=O)N(C)CC(=O)N[C@@H](CCc2cc(F)c(C(F)(F)F)c(F)c2)C(=O)N2C[C@@H](C)C[C@H]2C(=O)NC2(CC(C)(C)C2)C(=O)N1C [PP2500]	A (a compound having 10 or more and less than 20 is denoted as A)	A (a compound having 10 or more and less than 20 is denoted as A)	–
20.1	0.44	CCO[C@@H]1C[C@H]2C(=O)NC3(CC(C)(C)C3)C(=O)N(C)[C@@H](C(CC)CC)C(=O)N(C)[C@H](C(=O)N(C)C)CC(=O)N(C)[C@@H](COC)C(=O)N[C@@H]([C@@H](C)CC)C(=O)N(C)CC(=O)N(C)[C@H]3C/C=C\CCN(C3=O)[C@@H](CC3CCC(F)(F)CC3)C(=O)N(C)CC(=O)N[C@@H](CCc3cc(F)c(C(F)(F)F)c(F)c3)C(=O)N2C1 [PP2440]	A (a compound having 10 or more and less than 20 is denoted as A)	A (a compound having 10 or more and less than 20 is denoted as A)	–
185	–	CCCN1C(=O)CN(C)C(=O)CN(C)C(=O)[C@H]([C@@H](C)CC)NC(=O)[C@H](CC(C)C)N(C)C(=O)C[C@@H](C(=O)N2CCOCC2)N(C)C(=O)[C@H](C2CCCC2)N(C)C(=O)[C@](C)(CC(C)C)NC(=O)[C@@H]2CCCN2C(=O)[C@H](CCc2cc(F)c(C(F)(F)F)c(F)c2)NC(=O)CN(C)C(=O)[C@@H]1Cc1ccc(C(F)(F)F)cc1 [PP0759] ([NMeL]I[Sar][Sar][NPrPhe(4-CF3)][Sar][hPhe(3,5-F2-4-CF3)]P[αMeL][NMeGly(cPent)][NMeD]-Morpholide; lactam N-11)	–	–	HRAS/KRAS (ratio of KD value with respect to HRAS to KD value with respect to KRAS) [1, 8]: B (a compound having 3 or more and less than 10 is denoted as B); NRAS/KRAS (ratio of KD value with respect to NRAS to KD value with respect to KRAS) [2, 9]: B (a compound having 3 or more and less than 10 is denoted as B); Kd [4, 10]: 2.7 nM
21.4	–	CCO[C@@H]1C[C@H]2C(=O)NC3(CCC3)C(=O)N(C)[C@@H](C(CC)CC)C(=O)N(C)[C@H](C(=O)N(C)C)CC(=O)N(C)[C@@H](CC3CC3)C(=O)N[C@@H]([C@@H](C)CC)C(=O)N(C)CC(=O)N(C)[C@H]3C/C=C\CCN(C3=O)[C@@H](Cc3ccc(C(F)(F)F)cc3)C(=O)N(C)CC(=O)N[C@@H](CCc3ccc(Cl)c(Cl)c3)C(=O)N2C1 [PP1219]	–	–	HRAS/KRAS (ratio of KD value for HRAS to KD value for KRAS) [1, 5]: A (a compound having 10 or more and less than 20 is denoted as A); NRAS/KRAS (ratio of KD value for NRAS to KD value for KRAS) [2, 6]: AA (a compound having 20 or more is denoted as AA); Kd [4, 7]: 0.35 nM

SMILES	IC50 [3] [nM]	Kd [4, 11] [nM]	HRAS/KRAS (ratio of KD value for HRAS to KD value for KRAS) [1, 8]	NRAS/KRAS (ratio of KD value for NRAS to KD value for KRAS) [2, 9]	further results
CCCN1C(=O)CN(C)C(=O)CN(C)C(=O)[C@H]([C@@H](C)CC)NC(=O)[C@H](CC(C)C)N(C)C(=O)C[C@@H](C(=O)N2C3CCC2COC3)N(C)C(=O)[C@H](C2CCCC2)N(C)C(=O)C2(CCCC2)NC(=O)[C@@H]2CCCN2C(=O)[C@H](CCc2ccc(C(F)(F)F)c(Cl)c2)NC(=O)CN(C)C(=O)[C@@H]1Cc1ccc(C(F)(F)F)cc1 [PP0173] ([NMeL]I[Sar][Sar][NPrPhe(4-CF3)][Sar][hPhe(3-Cl-4-CF3)]P[Ac5c][NMeGly(cPent)][NMeD]-{3Oxa8azabicyclo(3.2.1)octane}; lactam N-11)	11.6	–	C (A compound having a KD ratio of 0.1 or more and less than 3 is denoted as C)	B (a compound having 3 or more and less than 10 is denoted as B)	Kd [4, 10]: 0.67 nM
CCC[C@H]1C(=O)N[C@@H]([C@@H](C)CC)C(=O)N(C)CC(=O)N(C)[C@H]2C/C=C\CCN(C2=O)[C@@H](Cc2ccc(C)cc2)C(=O)N(C)CC(=O)N[C@@H](CCc2ccc(C(F)(F)F)c(OC)c2)C(=O)N2C[C@H](OCC)C[C@H]2C(=O)N(C)C2(CCC2)C(=O)N(C)[C@@H](C2CCCC2)C(=O)N(C)[C@H](C(=O)N2CCCCC2)CC(=O)N1C [PP3104, (2S,8S,12R,14S,20S,23S,27S,30S,36S,38Z)-20-cyclopentyl-12-ethoxy-8-[2-[3-methoxy-4-(trifluoromethyl)phenyl]ethyl]-4,16,19,22,26,32,35-heptamethyl-30-[(1S)-1-methylpropyl]-23-(piperidine-1-carbonyl)-27-propyl-2-(p-tolylmethyl)spiro[1,4,7,10,16,19,22,26,29,32,35-undecazatricyclo[34.5.1.0^10,14]dotetracont-38-ene-17,1′-cyclobutane]-3,6,9,15,18,21,25,28,31,34,42-undecone]	–	0.097	A (a compound having 10 or more and less than 20 is denoted as A)	A (a compound having 10 or more and less than 20 is denoted as A)	ratio of the KD value with respect to GDP-bound HRAS wild-type protein to the KD value with respect to KRAS ([1]; KD(HRAS)/KD(KRAS)): A (a compound having 10 or more and less than 20 is denoted as A); ratio of the KD value with respect to GDP-bound NRAS wild-type protein to the KD value with respect to KRAS ([2]; KD(NRAS)/KD(KRAS)): A (a compound having 10 or more and less than 20 is denoted as A); IC50 ([3]; read-out: NCI-H441 cell proliferation inhibitory activity, 50% proliferation inhibitory concentration (IC50 value), NCI-H441, four days, CellTiter-Glo): 3.8 nM; Kd ([4]; SPR, Single Cycle Kinetics, 1:1 binding model, read-out: KD value with respect to GDP-bound KRAS wild-type protein): 0.097 nM
